For one assay, the target named is T1, BRAF V600E (Homo sapiens, UniProt P15056+Q96SW2, V600E).
T1 construct: knock-in of the HiBiT tag to the endogenous BRAF V600E locus; host or cells: A375.10 (A375 clonal line, CRISPR HiBiT knock-in at the endogenous BRAF V600E locus)
As to the kind of experiment: BRAF V600E HiBiT Degradation Assay. Type of assay: cell-based. A digest of the protocol:
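Endogenous HiBiT knock-in on BRAF V600E in A375 cells (clone A375.10); 11-point half-log series, top 10 μM, 2, 6 or 24 h at 37° C. Lytic HiBiT luminescence, background-subtracted, normalized to DMSO; 4-parameter fit gives DC50, Emax (residual protein) and IP (inflection point).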
Background: With HiBiT, luminescence reflects the tagged protein that the partner subunit can reach.

The test system of a further assay is A375-NRAS^Q61K cells. The assay is described as follows: CTGlo Cell Viability Assay, A375-NRAS^Q61K (A375.11) cells, 96 hours. Type of assay: cell-based, human. The settings on record: A375.11 (A375-NRAS^Q61K) cells; for CTGlo A375.11 96 hours Emax / Emax: lowest % viability achieved. A digest of the protocol:
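A375 cells carrying BRAF V600E and NRAS Q61K were seeded at 250 cells/well with a 10-point half-log dose series (max 10 μM final). After 96 h at 37 °C, viability was read as ATP luminescence (CellTiter-Glo), background-subtracted and normalized to DMSO (100%). GI50 from 4-parameter fit; Emax is the lowest % viability.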

Setting [1] is: A375.10 cells, BRAF V600E, 2 hours, inflection point, read-out: HiBiT-Degradation A375.10 BRAF 2 hours IP.
[2] abbreviates: A375.10 cells, BRAF V600E, 2 hours, read-out: HiBiT-Degradation A375.10 BRAF 2 hours DC50.
[3] abbreviates: A375.10 cells, BRAF V600E, 2 hours, residual protein remaining.
Setting [4] is: A375.10 cells, BRAF V600E, 2 hours, residual protein remaining, read-out: HiBiT-Degradation A375.10 BRAF 2 hours Emax.
Where [5] appears, read: A375.10 cells, HiBiT, BRAF V600E, 24 hours, read-out: HiBiT-Degradation A375.10 BRAF 24 hours DC50.
Where [6] appears, read: A375.10 cells, HiBiT, BRAF V600E, 24 hours, read-out: HiBiT-Degradation A375.10 BRAF 24 hours Emax.
The mark [7] stands for this setting: A375.10 cells, HiBiT, BRAF V600E, 24 hours, read-out: HiBiT-Degradation A375.10 BRAF 24 hours IP.
Where [8] appears, read: A375.10 cells, HiBiT, BRAF V600E, 24 hours.

Read-outs that look alike come from different tables or passages of the source.

Data on 12 compounds can be found in patent US20260297060A1, “COMPOUNDS FOR THE DEGRADATION OF MUTANT BRAF” (C4 THERAPEUTICS, INC., priority 2023, published 2026).

As a reminder, the GI50 is the concentration that inhibits growth by half.

T1 sequence (P15056 whole entry V600E): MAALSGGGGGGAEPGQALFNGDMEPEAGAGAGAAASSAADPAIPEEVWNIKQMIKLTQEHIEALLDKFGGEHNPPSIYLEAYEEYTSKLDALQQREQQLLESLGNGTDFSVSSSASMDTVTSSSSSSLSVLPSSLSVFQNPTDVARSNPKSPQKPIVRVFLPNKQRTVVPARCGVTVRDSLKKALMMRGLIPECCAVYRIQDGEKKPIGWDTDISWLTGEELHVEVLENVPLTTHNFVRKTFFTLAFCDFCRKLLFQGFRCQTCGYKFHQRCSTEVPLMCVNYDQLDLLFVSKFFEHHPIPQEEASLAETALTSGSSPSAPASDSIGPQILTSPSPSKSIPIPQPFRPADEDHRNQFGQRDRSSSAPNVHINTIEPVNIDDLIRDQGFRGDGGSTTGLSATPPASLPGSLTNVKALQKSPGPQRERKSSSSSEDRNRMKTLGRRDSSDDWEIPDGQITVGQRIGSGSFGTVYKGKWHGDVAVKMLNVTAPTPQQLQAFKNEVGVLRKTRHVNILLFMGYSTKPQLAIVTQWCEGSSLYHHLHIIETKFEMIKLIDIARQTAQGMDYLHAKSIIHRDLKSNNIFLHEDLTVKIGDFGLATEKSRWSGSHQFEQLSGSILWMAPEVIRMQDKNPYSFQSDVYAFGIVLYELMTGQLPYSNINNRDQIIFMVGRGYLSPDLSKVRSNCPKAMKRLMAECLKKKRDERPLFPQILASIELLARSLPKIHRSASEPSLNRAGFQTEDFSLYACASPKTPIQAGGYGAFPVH
T1 sequence (Q96SW2 whole entry): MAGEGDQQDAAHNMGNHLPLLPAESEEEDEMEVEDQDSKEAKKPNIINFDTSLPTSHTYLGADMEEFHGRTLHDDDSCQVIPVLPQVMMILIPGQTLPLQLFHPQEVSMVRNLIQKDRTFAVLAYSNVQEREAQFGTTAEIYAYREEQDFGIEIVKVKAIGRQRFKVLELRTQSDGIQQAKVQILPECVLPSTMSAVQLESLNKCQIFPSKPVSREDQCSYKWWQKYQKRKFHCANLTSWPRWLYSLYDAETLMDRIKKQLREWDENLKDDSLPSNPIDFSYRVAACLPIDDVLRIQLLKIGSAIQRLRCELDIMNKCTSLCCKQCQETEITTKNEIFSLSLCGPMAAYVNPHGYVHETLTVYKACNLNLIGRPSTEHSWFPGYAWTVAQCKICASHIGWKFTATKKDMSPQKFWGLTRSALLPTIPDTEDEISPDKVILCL
T1 sequence (Q16531 whole entry partner): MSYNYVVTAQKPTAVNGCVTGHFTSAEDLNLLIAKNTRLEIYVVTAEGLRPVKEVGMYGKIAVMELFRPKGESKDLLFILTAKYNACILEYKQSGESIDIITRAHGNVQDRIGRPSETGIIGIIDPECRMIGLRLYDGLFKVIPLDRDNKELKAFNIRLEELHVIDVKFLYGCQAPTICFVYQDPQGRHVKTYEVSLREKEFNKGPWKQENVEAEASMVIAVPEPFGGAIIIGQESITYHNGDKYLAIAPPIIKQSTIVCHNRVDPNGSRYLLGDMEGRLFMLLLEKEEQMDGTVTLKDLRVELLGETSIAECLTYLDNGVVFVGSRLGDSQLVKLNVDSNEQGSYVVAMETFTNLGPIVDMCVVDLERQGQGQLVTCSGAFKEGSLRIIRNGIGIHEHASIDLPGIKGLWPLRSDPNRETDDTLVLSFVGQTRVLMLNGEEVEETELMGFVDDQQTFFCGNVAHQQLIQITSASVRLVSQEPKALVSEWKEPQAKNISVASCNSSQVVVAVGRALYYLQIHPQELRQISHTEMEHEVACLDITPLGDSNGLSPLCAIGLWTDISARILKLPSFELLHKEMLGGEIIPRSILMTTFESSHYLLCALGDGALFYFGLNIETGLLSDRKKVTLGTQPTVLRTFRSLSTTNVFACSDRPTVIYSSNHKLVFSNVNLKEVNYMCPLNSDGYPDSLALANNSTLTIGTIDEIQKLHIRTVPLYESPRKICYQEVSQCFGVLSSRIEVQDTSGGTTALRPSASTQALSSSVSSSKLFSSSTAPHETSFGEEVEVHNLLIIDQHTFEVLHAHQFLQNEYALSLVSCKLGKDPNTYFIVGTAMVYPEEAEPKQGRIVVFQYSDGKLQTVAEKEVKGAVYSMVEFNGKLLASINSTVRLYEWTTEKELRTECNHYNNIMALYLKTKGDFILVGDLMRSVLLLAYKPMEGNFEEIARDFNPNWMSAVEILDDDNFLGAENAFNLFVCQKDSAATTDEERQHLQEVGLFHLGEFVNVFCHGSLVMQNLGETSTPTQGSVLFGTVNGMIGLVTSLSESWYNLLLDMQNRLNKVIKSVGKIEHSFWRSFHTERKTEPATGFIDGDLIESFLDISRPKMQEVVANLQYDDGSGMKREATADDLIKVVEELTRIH

On to `CCN(C)S(=O)(=O)Nc1ccc(F)c(Oc2ccc3ncn([C@@H]4CO[C@]5(CCN(C6CCC(c7cc8c(cc7F)c(N7CCC(=O)NC7=O)nn8C)CC6)C5)C4)c(=O)c3c2)c1C#N` (single isomer, unassigned) [Compound 291], for which the figures for the DC50 on BRAF V600E (setting [1]) and on BRAF V600E (setting [2]) were below 1000 nM and above 10000 nM, respectively. In addition, on BRAF V600E (setting [3]), the “HiBiT-Degradation A375.10 BRAF 2 hours Emax” value was “** (<90% and >50%)”. Moreover, in the assay with A375-NRAS^Q61K cells, the GI50 was in the range of 1000 to 10000 nM. For the same compound, in the assay on A375-NRAS^Q61K cells, the “CTGlo A375.11 96 hours Emax” value is reported as “* (>=90%)”.

`CCN(C)S(=O)(=O)Nc1ccc(F)c(Oc2ccc3ncn([C@H]4CO[C@@]5(CCN(C6CCC(c7cc8c(cc7F)c(N7CCC(=O)NC7=O)nn8C)CC6)C5)C4)c(=O)c3c2)c1C#N` (single isomer, unassigned) [Compound 292]: the DC50 on BRAF V600E (setting [1]), at BRAF V600E (setting [2]), at BRAF V600E (setting [5]) and at BRAF V600E (setting [7]) was below 1000 nM in each case. In addition, the Emax is below 50% on BRAF V600E (setting [4]); below 50% at BRAF V600E (setting [6]); 50 to 90% in the assay with A375-NRAS^Q61K cells (Homo sapiens, 96 h). The compound also returned a GI50 in the assay on A375-NRAS^Q61K cells (Homo sapiens, 96 h) below 1000 nM.

As to `CCN(C)S(=O)(=O)Nc1ccc(F)c(Oc2ccc3ncn([C@H]4CO[C@@]5(CCN(C6CCC(c7cc8c(cc7F)c(N7CCC(=O)NC7=O)nn8C)CC6)C5)C4)c(=O)c3c2)c1C#N` (single isomer, unassigned) [Compound 293], the DC50 on BRAF V600E (setting [2]) was below 1000 nM. The “HiBiT-Degradation A375.10 BRAF 2 hours Emax” value on BRAF V600E (setting [3]) is on record as “*** (<=50%)”. Moreover, in the assay on A375-NRAS^Q61K cells, the GI50 is below 1000 nM; the “CTGlo A375.11 96 hours Emax” value is “** (<90% and >50%)”.

On to `CN(CCO)S(=O)(=O)Nc1ccc(F)c(Oc2ccc3ncc(C4CC5(CCN(C6CCC(c7cc8c(cc7F)c(N7CCC(=O)NC7=O)nn8C)CC6)CC5)C4)nc3c2)c1C#N` (single isomer, unassigned) [Compound 294, 7-[2-cyano-6-fluoro-3-[[2-hydroxyethyl(methyl)sulfamoyl]amino]phenoxy]-2-[7-[4-[3-(2,4-dioxohexahydropyrimidin-1-yl)-5-fluoro-1-methyl-indazol-6-yl]cyclohexyl]-7-azaspiro[3.5]nonan-2-yl]quinoxaline], for which the DC50 on BRAF V600E (setting [1]) and at BRAF V600E (setting [2]) was below 1000 nM in each case. The Emax at BRAF V600E (setting [4]) was in the range of 50 to 90%. In the assay on A375-NRAS^Q61K cells, the “CTGlo A375.11 96 hours Emax” value was “** (<90% and >50%)”. The compound also displayed a GI50 in the assay with A375-NRAS^Q61K cells (Homo sapiens, 96 h) of 1000 to 10000 nM.

For the compound `CN(CCO)S(=O)(=O)Nc1ccc(F)c(Oc2ccc3ncc(C4CC5(CCN(C6CCC(c7cc8c(cc7F)c(N7CCC(=O)NC7=O)nn8C)CC6)CC5)C4)nc3c2)c1C#N` (single isomer, unassigned) [Compound 295, 7-[2-cyano-6-fluoro-3-[[2-hydroxyethyl(methyl)sulfamoyl]amino]phenoxy]-2-[7-[4-[3-(2,4-dioxohexahydropyrimidin-1-yl)-5-fluoro-1-methyl-indazol-6-yl]cyclohexyl]-7-azaspiro[3.5]nonan-2-yl]quinoxaline], the DC50 on BRAF V600E (setting [1]) was below 1000 nM. The DC50 on BRAF V600E (setting [2]) is below 1000 nM. Moreover, the “HiBiT-Degradation A375.10 BRAF 2 hours Emax” value on BRAF V600E (setting [3]) was “** (<90% and >50%)”. Moreover, in the assay on A375-NRAS^Q61K cells, the GI50 was in the range of 1000 to 10000 nM and the “CTGlo A375.11 96 hours Emax” value is given as “* (>=90%)”.

With `CCN(C)S(=O)(=O)Nc1ccc(F)c(Oc2ccc3ncc(C4CC5(C4)CN(C4CCC(c6cc7c(cc6F)c(N6CCC(=O)NC6=O)nn7C)CC4)C5)nc3c2)c1C#N` (single isomer, unassigned) [Compound 297, 7-[2-cyano-3-[[ethyl(methyl)sulfamoyl]amino]-6-fluoro-phenoxy]-2-[2-[4-[3-(2,4-dioxohexahydropyrimidin-1-yl)-5-fluoro-1-methyl-indazol-6-yl]cyclohexyl]-2-azaspiro[3.3]heptan-6-yl]quinoxaline], the DC50 is below 1000 nM on BRAF V600E (setting [1]), 1000 to 10000 nM on BRAF V600E (setting [2]), below 1000 nM on BRAF V600E (setting [5]) and below 1000 nM at BRAF V600E (setting [7]). Moreover, the Emax on BRAF V600E (setting [4]) is 50 to 90%; on BRAF V600E (setting [6]), below 50%; with A375-NRAS^Q61K cells (Homo sapiens, 96 h), 50 to 90%. Also, the GI50 in the assay on A375-NRAS^Q61K cells (Homo sapiens, 96 h) was 1000 to 10000 nM.

`CCN(C)S(=O)(=O)Nc1ccc(F)c(Oc2ccc3ncc(C4CC5(C4)CN(C4CCC(c6cc7c(cc6F)c(N6CCC(=O)NC6=O)nn7C)CC4)C5)nc3c2)c1C#N` (single isomer, unassigned) [Compound 298, 7-[2-cyano-3-[[ethyl(methyl)sulfamoyl]amino]-6-fluoro-phenoxy]-2-[2-[4-[3-(2,4-dioxohexahydropyrimidin-1-yl)-5-fluoro-1-methyl-indazol-6-yl]cyclohexyl]-2-azaspiro[3.3]heptan-6-yl]quinoxaline]: the DC50 on BRAF V600E (setting [1]), at BRAF V600E (setting [2]), at BRAF V600E (setting [5]) and on BRAF V600E (setting [7]) was below 1000 nM each time. Also, at BRAF V600E (setting [3]), the “HiBiT-Degradation A375.10 BRAF 2 hours Emax” value is reported as “*** (<=50%)”. Also, the “HiBiT-Degradation A375.10 BRAF 24 hours Emax” value on BRAF V600E (setting [8]) is recorded as “*** (<=50%)”. This compound yielded a GI50 in the assay with A375-NRAS^Q61K cells below 1000 nM. Further, the “CTGlo A375.11 96 hours Emax” value in the assay on A375-NRAS^Q61K cells is reported as “*** (<=50%)”.

With `CCN(C)S(=O)(=O)Nc1ccc(F)c(Oc2ccc3ncn(C4CC5(C4)CN(C4CCC(c6cc7c(cc6F)c(N6CCC(=O)NC6=O)nn7C)CC4F)C5)c(=O)c3c2)c1C#N` (single isomer, unassigned) [Compound 299], the DC50 at BRAF V600E (setting [1]) was below 1000 nM; at BRAF V600E (setting [2]), 1000 to 10000 nM; on BRAF V600E (setting [5]), below 1000 nM; on BRAF V600E (setting [7]), below 1000 nM. In addition, the Emax was below 50% on BRAF V600E (setting [6]); 50 to 90% on BRAF V600E (read-out: HiBiT-Degradation A375.10 BRAF 2 hours Emax, A375.10 cells, BRAF V600E, 2 hours, residual protein remaining); 50 to 90% in the assay with A375-NRAS^Q61K cells (Homo sapiens, 96 h). The GI50 in the assay with A375-NRAS^Q61K cells (Homo sapiens, 96 h) is 1000 to 10000 nM.

As to `CCN(C)S(=O)(=O)Nc1ccc(F)c(Oc2ccc3ncn(C4CC5(C4)CN(C4CCC(c6cc7c(cc6F)c(N6CCC(=O)NC6=O)nn7C)CC4F)C5)c(=O)c3c2)c1C#N` (single isomer, unassigned) [Compound 300], the DC50 on BRAF V600E (setting [1]), on BRAF V600E (setting [2]), at BRAF V600E (setting [5]) and on BRAF V600E (setting [7]) was below 1000 nM in each case. In addition, the “HiBiT-Degradation A375.10 BRAF 2 hours Emax” value on BRAF V600E (setting [3]) is on record as “*** (<=50%)”. Further, the “HiBiT-Degradation A375.10 BRAF 24 hours Emax” value on BRAF V600E (setting [8]) is “*** (<=50%)”. Further, in the assay with A375-NRAS^Q61K cells, the GI50 is below 1000 nM. In the assay with A375-NRAS^Q61K cells, the “CTGlo A375.11 96 hours Emax” value is “** (<90% and >50%)”.

As for `CCN(C)S(=O)(=O)Nc1ccc(F)c(Oc2ccc3ncn(C4CC5(CCN(C6CC7(C6)CN(c6cc8c(cc6F)c(N6CCC(=O)NC6=O)nn8C)C7)C5)C4)c(=O)c3c2)c1C#N` (single isomer, unassigned) [Compound 301, 6-[2-cyano-3-[[ethyl(methyl)sulfamoyl]amino]-6-fluoro-phenoxy]-3-[6-[2-[3-(2,4-dioxohexahydropyrimidin-1-yl)-5-fluoro-1-methyl-indazol-6-yl]-2-azaspiro[3.3]heptan-6-yl]-6-azaspiro[3.4]octan-2-yl]-4-oxo-quinazoline], the DC50 on BRAF V600E (setting [1]) and on BRAF V600E (setting [2]) was below 1000 nM each time. Further, the Emax is 50 to 90% at BRAF V600E (setting [4]) and 50 to 90% in the assay with A375-NRAS^Q61K cells (Homo sapiens, 96 h). In the assay on A375-NRAS^Q61K cells (Homo sapiens, 96 h), this compound showed a GI50 below 1000 nM.

For `CCN(C)S(=O)(=O)Nc1ccc(F)c(Oc2ccc3ncn(C4CC5(CCN(C6CC7(C6)CN(c6cc8c(cc6F)c(N6CCC(=O)NC6=O)nn8C)C7)C5)C4)c(=O)c3c2)c1C#N` (single isomer, unassigned) [Compound 302, 6-[2-cyano-3-[[ethyl(methyl)sulfamoyl]amino]-6-fluoro-phenoxy]-3-[6-[2-[3-(2,4-dioxohexahydropyrimidin-1-yl)-5-fluoro-1-methyl-indazol-6-yl]-2-azaspiro[3.3]heptan-6-yl]-6-azaspiro[3.4]octan-2-yl]-4-oxo-quinazoline], on BRAF V600E (setting [2]), the DC50 was below 1000 nM. Further, the GI50 in the assay with A375-NRAS^Q61K cells is below 1000 nM.

Turning to `CCN(C)S(=O)(=O)Nc1ccc(F)c(Oc2ccc3ncn(C4CC5(CCN(C6CCN(c7cc8c(cc7F)c(N7CCC(=O)NC7=O)nn8C)CC6)C5)C4)c(=O)c3c2)c1C#N` (single isomer, unassigned) [Compound 307, 6-[2-cyano-3-[[ethyl(methyl)sulfamoyl]amino]-6-fluoro-phenoxy]-3-[6-[1-[3-(2,4-dioxohexahydropyrimidin-1-yl)-5-fluoro-1-methyl-indazol-6-yl]-4-piperidyl]-6-azaspiro[3.4]octan-2-yl]-4-oxo-quinazoline], the values for the DC50 on BRAF V600E (setting [1]) and on BRAF V600E (setting [2]) were below 1000 nM and 1000 to 10000 nM, respectively. Besides, the Emax was in the range of 50 to 90% at BRAF V600E (setting [4]) and 50 to 90% in the assay on A375-NRAS^Q61K cells (Homo sapiens, 96 h). In the assay on A375-NRAS^Q61K cells (Homo sapiens, 96 h), this compound displayed a GI50 of 1000 to 10000 nM.
